According to paper PMC5666006, “Combating virulence of Gram-negative bacilli by OmpA inhibition” (Scientific Reports, 2017):
Where a SMILES comes first, the peptide text is derived from it. [ ]: non-standard residue; d: D form.

Key:
A. baumannii ATCC 17978 = assay type: cell-based
Protocol: (§1) In the initial screening, the bactericidal activity of the synthetic peptides and their toxicity on human lung epithelial cells (A549) were evaluated.
(§2) Table S1. MICs of the six hexapeptides for A. baumannii and E. coli.
(§3) Peptides P. aeruginosa PaO1
(§4) MIC: minimal inhibitory concentration

E. coli ATCC 25922 = assay type: cell-based
Protocol: as §1, §2, §3, §4

P. aeruginosa PaO1 = assay type: cell-based
Protocol: as §1, §2, §3, §4

[1] = Peptide toxicity, MTT assay; assay type: cell-based, human; details: human, A549 cells
Protocol: (§5) Human type II pneumocyte cell line A549 derived from a human lung carcinoma were obtained from American Type Culture Collection (LGC, UK) and were grown in DMEM medium (Invitrogen, Spain) supplemented with 10% heat-inactivated fetal bovine serum, vancomycin (50 μg/mL), gentamicin (20 μg/mL), amphotericin B (0.25 μg/mL) (Invitrogen, Spain) and 1% HEPES (Invitrogen, Spain) in a humidified incubator, 5% CO2 at 37 °C. A549 cells were routinely passaged every 3–4 days. The cells were seeded 24 h in 96-well plates for cellular viability assay, and in 24 well plates for adhesion and immnunofluorescence assays.
(§6) Peptide toxicity. […] Prior the evaluation of the peptides cytotoxicity, A549 cells were washed three times with prewarmed PBS. Then, peptides cytotoxicity was initially assessed quantitatively by monitoring the mitochondrial reduction activity using the MTT assay as described previously. The percentage of […] was calculated from the optical density (OD) as follow: [(OD of treated cells / mean OD of non-treated cell) × 100].
(§7) Table S2. Percentages of A549 cellular viability assessed through mitochondrial reduction
(§8) activity (MTT assay) in presence of anti-OmpA hexapeptides and control peptides (SXV4 and
(§9) COL). COL: colistin. ND: not determined.
(§10) Peptides 0.25 mg/mL 0.5 mg/mL 1 mg/mL 5 mg/mL

A549 cells = test: Peptide toxicity, MTT assay; assay type: cell-based, human; details: 48 h, MTT, mean ± SEM
Protocol: as §5, §6, §7, §8, §9, §10

| Molecule | MIC (A. baumannii ATCC 17978) [µg/mL] | MIC (E. coli ATCC 25922) [µg/mL] | MIC (P. aeruginosa PaO1) [µg/mL] | viability at 48 h, 250 µg/mL [1] [%] | viability at 48 h, 500 µg/mL [1] [%] | viability at 48 h, 1000 µg/mL [1] [%] | Cellular viability (%) (A549 cells; A549, 0.5 mg/mL) | Cellular viability (%) (A549 cells; A549, 1 mg/mL) | Cellular viability (%) (A549 cells; A549, 5 mg/mL) |
| --- | --- | --- | --- | --- | --- | --- | --- | --- | --- |
| N=C(N)NCCC[C@@H]1NC(=O)[C@@H](Cc2c[nH]c3ccccc23)NC(=O)[C@@H]2CCCN2C(=O)[C@H](CCCNC(=N)N)NC(=O)[C@@H](Cc2c[nH]c3ccccc23)NC(=O)[C@@H]2CCCN2C1=O [AOA-3] (cyclo(P[dW]RP[dW]R)) | > 500 | > 500 | > 500 | 99.27 ± 0.21 | 99.7 ± 0.14 | 99.36 ± 0.3 | – | – | – |
| O=C1N[C@@H](CO)C(=O)N2CCC[C@@H]2C(=O)N[C@@H](Cc2c[nH]c3ccccc23)C(=O)N[C@@H](CO)C(=O)N2CCC[C@@H]2C(=O)N[C@H]1Cc1c[nH]c2ccccc12 [AOA-5] (cyclo(S[dP]WS[dP]W)) | > 500 | > 500 | > 500 | 98.86 ± 0.08 | 100 ± 0.39 | 100.1 ± 0.46 | – | – | – |
| colistin [reference compound] | – | – | – | – | – | – | 91.85 ± 2.67 | 68.39 ± 2.93 | 9.88 ± 0.42 |
| N=C(N)NCCC[C@@H]1NC(=O)[C@H](Cc2c[nH]c3ccccc23)NC(=O)[C@H]2CCCN2C(=O)[C@H](CCCNC(=N)N)NC(=O)[C@H](Cc2c[nH]c3ccccc23)NC(=O)[C@H]2CCCN2C1=O [AOA-1] (cyclo(R[dP]WR[dP]W)) | > 500 | > 500 | > 500 | 98.89 ± 0.41 | 99.69 ± 0.26 | 99.7 ± 0.38 | – | – | – |
| CC(=O)N[C@@H](Cc1c[nH]c2ccccc12)C(=O)N1CCC[C@@H]1C(=O)N[C@@H](CCCNC(=N)N)C(=O)N[C@@H](Cc1c[nH]c2ccccc12)C(=O)N1CCC[C@@H]1C(=O)N[C@@H](CCCNC(=N)N)C(=O)O [SXV4] (Ac-W[dP]RW[dP]R-OH) | > 500 | > 500 | > 500 | 98.17 ± 0.6 | 98.79 ± 0.28 | 98.55 ± 0.21 | – | – | – |
| O=C(O)CC[C@@H]1NC(=O)[C@H](Cc2c[nH]c3ccccc23)NC(=O)[C@H]2CCCN2C(=O)[C@H](CCC(=O)O)NC(=O)[C@H](Cc2c[nH]c3ccccc23)NC(=O)[C@H]2CCCN2C1=O [AOA-6] (cyclo(E[dP]WE[dP]W)) | > 500 | > 500 | > 500 | 98.31 ± 0.35 | 99.14 ± 0.44 | 99.38 ± 0.34 | – | – | – |
| N=C(N)NCCC[C@H]1NC(=O)[C@H](Cc2c[nH]c3ccccc23)NC(=O)[C@@H]2CCCN2C(=O)[C@@H](CCCNC(=N)N)NC(=O)[C@H](Cc2c[nH]c3ccccc23)NC(=O)[C@@H]2CCCN2C1=O [AOA-4] (cyclo(PW[dR]PW[dR])) | > 500 | > 500 | > 500 | 99.47 ± 0.39 | 99.77 ± 0.17 | 100.1 ± 0.18 | – | – | – |
